Two compounds from paper PMC9788324, “In Vitro and In Silico Pharmacological and Cosmeceutical Potential of Ten Essential Oils from Aromatic Medicinal Plants from the Mascarene Islands” (Molecules, 2022) can be followed below.

Assay [1] has as its target T1, collagenase from Clostridium histolyticum (Type IV).
T1 construct: gene colG; native commercial collagenase from EnzChek Gelatinase/Collagenase Assay Kit; ColG/ColH not distinguished; docking used PDB 2Y6I, not the assay protein
The experiment in a line: fluorescence assay, DQ gelatin-fluorescein ([…] nm). The class given is biochemical, Hathewaya histolytica. The settings on record: DQ gelatin substrate, 0.2 U/mL enzyme, 15 min preincubation at 37 °C; positive control, printed as '1,1 Phenanthroline' in table.

Assay [2] addresses T2, porcine pancreatic elastase (Sus scrofa, UniProt P00772).
T2 construct: gene CELA1; commercial native pancreatic enzyme (Sigma-Aldrich); mature form; docking used PDB 1BRU (recalled as porcine elastase 2), not the assay protein
Description: chromogenic assay, absorbance at […] nm. The class given is biochemical. Conditions: read-out: Elastase Inhibition / IC50 (μg/mL) (converted).

T2 sequence (P00772 27-266): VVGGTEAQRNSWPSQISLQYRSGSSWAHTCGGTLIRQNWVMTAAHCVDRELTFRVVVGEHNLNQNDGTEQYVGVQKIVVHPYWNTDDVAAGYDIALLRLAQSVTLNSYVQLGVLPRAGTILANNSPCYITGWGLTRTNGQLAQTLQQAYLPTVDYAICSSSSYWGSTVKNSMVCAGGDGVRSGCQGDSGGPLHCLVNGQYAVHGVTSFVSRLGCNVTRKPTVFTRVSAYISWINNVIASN

As for `c1cnc2c(c1)ccc1cccnc12` [1,10-phenanthroline], the “Collagenase Inhibition / IC50 (mg/mL)” value in assay [1] is reported as 4.20 × 10^−3 ± 0.00 mg/mL.

As for `C[C@H]1[C@H](C)CC[C@]2(C(=O)O)CC[C@]3(C)C(=CC[C@@H]4[C@@]5(C)CC[C@H](O)C(C)(C)[C@@H]5CC[C@]43C)[C@H]12` [Ursolic acid], the IC50 in assay [2] was 22.1 µM.
